Data published in publication PMC2659609 (Molecular cancer therapeutics, 2008).

Tests used:
[1] = tested on: human hepatoma cell line HepG2; experiment: General cell cytotoxicity assay; format: cell-based; conditions: 20μM, 72 hours, media and compounds replaced every 24 hours
[2] = tested on: HEK 293FT cells; experiment: Toxicity to HEK 293FT cells under pericellular assay conditions; format: cell-based; conditions: 24-hour treatment
[3] = target: thrombin (Bos taurus, UniProt P00735); experiment: Thrombin activity assay, chromogenic substrate pyroGlu-Pro-Arg-pNA, kinetic; format: biochemical
[4] = tested on: mouse prostate epithelial cell line MP-1; experiment: General cell cytotoxicity assay; format: cell-based; conditions: 20μM, 72 hours, media and compounds replaced every 24 hours
[5] = tested on: human prostate cancer cell line LNCaP; experiment: General cell cytotoxicity assay; format: cell-based; conditions: 20μM, 72 hours, media and compounds replaced every 24 hours
[6] = target: purified recombinant human hepsin (Homo sapiens, UniProt P05981); experiment: Hepsin activity assay, chromogenic substrate pyroGlu-Pro-Arg-pNA, kinetic
[7] = target: full-length wild-type mouse hepsin expressed in HEK 293FT cells (Mus musculus, UniProt O35453); experiment: Hepsin-dependent pericellular serine proteolytic activity assay; format: cell-based
[8] = target: trypsin (Sus scrofa, UniProt P00761); experiment: Trypsin activity assay, chromogenic substrate pyroGlu-Pro-Arg-pNA, kinetic; format: biochemical
[9] = approximate; cited from earlier work
[10] = mainly to albumin; cited from earlier work

Sequence of purified recombinant human hepsin (P05981 46-417): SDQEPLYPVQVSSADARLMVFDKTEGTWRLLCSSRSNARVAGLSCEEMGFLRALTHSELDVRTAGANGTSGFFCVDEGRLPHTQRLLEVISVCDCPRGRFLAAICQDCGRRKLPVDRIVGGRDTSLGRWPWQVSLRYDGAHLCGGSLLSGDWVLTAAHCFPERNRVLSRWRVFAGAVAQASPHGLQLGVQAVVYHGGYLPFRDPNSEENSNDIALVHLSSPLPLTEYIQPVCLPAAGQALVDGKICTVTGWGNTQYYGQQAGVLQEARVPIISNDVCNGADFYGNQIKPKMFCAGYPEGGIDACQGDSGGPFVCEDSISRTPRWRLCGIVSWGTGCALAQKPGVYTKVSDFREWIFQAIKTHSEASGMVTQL
Sequence of full-length wild-type mouse hepsin expressed in HEK 293FT cells (O35453 1-416 isoform O35453-2): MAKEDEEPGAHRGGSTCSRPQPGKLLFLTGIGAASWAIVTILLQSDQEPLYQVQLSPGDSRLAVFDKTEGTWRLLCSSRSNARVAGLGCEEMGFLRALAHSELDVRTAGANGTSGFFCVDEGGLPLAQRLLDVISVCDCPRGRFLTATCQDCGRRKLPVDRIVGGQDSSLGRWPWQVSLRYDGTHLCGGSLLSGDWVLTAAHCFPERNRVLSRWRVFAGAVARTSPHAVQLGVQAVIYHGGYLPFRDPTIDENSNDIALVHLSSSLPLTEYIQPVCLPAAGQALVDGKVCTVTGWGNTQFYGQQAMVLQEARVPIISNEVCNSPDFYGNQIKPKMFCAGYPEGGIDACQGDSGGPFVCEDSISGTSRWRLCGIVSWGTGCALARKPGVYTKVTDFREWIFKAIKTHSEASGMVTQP
Sequence of trypsin (P00761 9-231): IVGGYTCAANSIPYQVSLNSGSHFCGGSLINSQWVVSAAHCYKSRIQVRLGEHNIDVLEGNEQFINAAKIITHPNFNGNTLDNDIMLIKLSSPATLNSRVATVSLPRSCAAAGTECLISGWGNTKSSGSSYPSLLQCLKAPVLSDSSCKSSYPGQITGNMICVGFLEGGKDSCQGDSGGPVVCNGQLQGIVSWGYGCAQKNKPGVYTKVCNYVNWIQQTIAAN

SMILES	cytotoxicity to HepG2 cells [1]	IC50 [3] [µM]	cytotoxicity to MP-1 cells [4]	cytotoxicity to LNCaP cells [5]	also measured
O=C1c2c(O)cccc2Cc2cccc(O)c21 [Compound 15, anthralin]	toxic	> 20	toxic	toxic	toxicity to HEK 293FT cells ([2]; 50μM): substantial toxicity
Cc1cccc(CN2CCN(C(c3ccccc3)c3ccc(Cl)cc3)CC2)c1 (stereo not shown) [Compound 13, meclizine]	limited or no cytotoxicity	> 20	limited or no cytotoxicity	limited or no cytotoxicity	overt toxicity to HEK 293FT cells / effect on hepsin expression levels ([2]; 20 and 50μM): without substantially affecting hepsin expression levels or displaying overt toxicity; equilibration time dependence of hepsin inhibition [6]: significantly increased with extended equilibration time; reversibility of hepsin inhibition by dilution ([6]; inhibitor at its IC50, 1 hour at room temperature, then diluted): not reversible by dilution; attenuation of pericellular proteolytic activity ([7]; 50μM, normalized to hepsin expression level, relative to vehicle): ~25%; IC50 [8]: > 20 µM
Oc1nc2cc(Cl)c(Cl)cc2nc1O [Compound 16, 2,3-dihydroxy-6,7-dichloroquinoxaline]	limited or no cytotoxicity	–	limited or no cytotoxicity	limited or no cytotoxicity	–
Cl.NCCc1ccc(S(=O)(=O)F)cc1 [PEFAbloc]	–	–	–	–	inhibition of hepsin proteolytic activity (in words) ([6]; 4mM PEFAbloc, 30 minutes, 0.4nM hepsin): completely inhibited
CC(C)(Sc1cc(C(C)(C)C)c(O)c(C(C)(C)C)c1)Sc1cc(C(C)(C)C)c(O)c(C(C)(C)C)c1 [Compound 14, probucol]	limited or no cytotoxicity	> 20	limited or no cytotoxicity	limited or no cytotoxicity	logP [9]: ~10; attenuation of pericellular proteolytic activity (in words) ([7]; 20 and 50μM, 24 hours): did not reduce
O=C1Nc2ccc(Cl)cc2[C@@](C#CC2CC2)(C(F)(F)F)O1 [efavirenz]	–	–	–	–	protein bound in plasma [10]: more than 99%
